Measurements from ChEMBL document CHEMBL3797052 (Eur J Med Chem, 2016).

What was measured:
Format in all cases: functional
[1] = Cytotoxicity against human HCT116 cells assessed as growth inhibition at 100 uM after 2 days by MTT assay; settings: HCT-116, 48 h, read-out: GI
[2] = Antiproliferative activity against human DU145 cells assessed as cell growth at 10^-5 M after 48 hrs by sulforhodamine B assay; settings: DU-145, 48 h, read-out: Activity
[3] = Antiproliferative activity against human OVCAR5 cells assessed as cell growth at 10^-5 M after 48 hrs by sulforhodamine B assay; settings: OVCAR-5, 48 h, read-out: Activity
SN12C = assay: Antiproliferative activity against human SN12C cells assessed as cell growth at 10^-5 M after 48 hrs by sulforhodamine B assay; settings: read-out: Activity
[4] = Antiproliferative activity against human SF295 cells assessed as cell growth at 10^-5 M after 48 hrs by sulforhodamine B assay; settings: SF-295, 48 h, read-out: Activity
[5] = Antiproliferative activity against human SF539 cells assessed as cell growth at 10^-5 M after 48 hrs by sulforhodamine B assay; settings: SF-539, 48 h, read-out: Activity
[6] = Antiproliferative activity against human HCT15 cells assessed as cell growth at 10^-5 M after 48 hrs by sulforhodamine B assay; settings: HCT-15, 48 h, read-out: Activity
[7] = Antiproliferative activity against human SF268 cells assessed as cell growth at 10^-5 M after 48 hrs by sulforhodamine B assay; settings: SF-268, 48 h, read-out: Activity
[8] = Antiproliferative activity against human SNB19 cells assessed as cell growth at 10^-5 M after 48 hrs by sulforhodamine B assay; settings: SNB-19, 48 h, read-out: Activity
[9] = Antiproliferative activity against human MOLT4 cells assessed as cell growth at 10^-5 M after 48 hrs by sulforhodamine B assay; settings: MOLT-4, 48 h, read-out: Activity
Malme-3M = assay: Antiproliferative activity against human MALME-3M cells assessed as cell growth at 10^-5 M after 48 hrs by sulforhodamine B assay; settings: read-out: Activity
SR = assay: Antiproliferative activity against human SR cells assessed as cell growth at 10^-5 M after 48 hrs by sulforhodamine B assay; settings: read-out: Activity
[10] = Antiproliferative activity against human HOP92 cells assessed as cell growth at 10^-5 M after 48 hrs by sulforhodamine B assay; settings: HOP-92, 48 h, read-out: Activity
M14 = assay: Antiproliferative activity against human M14 cells assessed as cell growth at 10^-5 M after 48 hrs by sulforhodamine B assay; settings: M14, 48 h, read-out: Activity
786-0 = assay: Antiproliferative activity against human 786-0 cells assessed as cell growth at 10^-5 M after 48 hrs by sulforhodamine B assay; settings: 786-0, 48 h, read-out: Activity
NCI-H226 = assay: Antiproliferative activity against human NCI-H226 cells assessed as cell growth at 10^-5 M after 48 hrs by sulforhodamine B assay; settings: NCI-H226, 48 h, read-out: Activity
ACHN = assay: Antiproliferative activity against human ACHN cells assessed as cell growth at 10^-5 M after 48 hrs by sulforhodamine B assay; settings: read-out: Activity
[11] = Antiproliferative activity against human UACC257 cells assessed as cell growth at 10^-5 M after 48 hrs by sulforhodamine B assay; settings: UACC-257, 48 h, read-out: Activity
[12] = Antiproliferative activity against human BT549 cells assessed as cell growth at 10^-5 M after 48 hrs by sulforhodamine B assay; settings: BT-549, 48 h, read-out: Activity
[13] = Antiproliferative activity against human Hs 578T cells assessed as cell growth at 10^-5 M after 48 hrs by sulforhodamine B assay; settings: read-out: Activity
MCF7 = assay: Antiproliferative activity against human MCF7 cells assessed as cell growth at 10^-5 M after 48 hrs by sulforhodamine B assay; settings: MCF7, 48 h, read-out: Activity
SK-MEL-28 = assay: Antiproliferative activity against human SK-MEL-28 cells assessed as cell growth at 10^-5 M after 48 hrs by sulforhodamine B assay; settings: SK-MEL-28, 48 h, read-out: Activity
[14] = Cytotoxicity against human HCT116 cells assessed as growth inhibition at 10 uM after 2 days by MTT assay; settings: HCT-116, 48 h, read-out: GI
NCI-H322M = assay: Antiproliferative activity against human NCI-H322M cells assessed as cell growth at 10^-5 M after 48 hrs by sulforhodamine B assay; settings: read-out: Activity
[15] = Antiproliferative activity against human SW620 cells assessed as cell growth at 10^-5 M after 48 hrs by sulforhodamine B assay; settings: SW-620, 48 h, read-out: Activity
SK-MEL-5 = assay: Antiproliferative activity against human SK-MEL-5 cells assessed as cell growth at 10^-5 M after 48 hrs by sulforhodamine B assay; settings: SK-MEL-5, 48 h, read-out: Activity
[16] = Antiproliferative activity against human SNB75 cells assessed as cell growth at 10^-5 M after 48 hrs by sulforhodamine B assay; settings: SNB-75, 48 h, read-out: Activity
EKVX = assay: Antiproliferative activity against human EKVX cells assessed as cell growth at 10^-5 M after 48 hrs by sulforhodamine B assay; settings: read-out: Activity
[17] = Antiproliferative activity against human HCT116 cells assessed as cell growth at 10^-5 M after 48 hrs by sulforhodamine B assay; settings: HCT-116, 48 h, read-out: Activity
[18] = Antiproliferative activity against human Caki1 cells assessed as cell growth at 10^-5 M after 48 hrs by sulforhodamine B assay; settings: CAKI-1, 48 h, read-out: Activity
KM12 = assay: Antiproliferative activity against human KM12 cells assessed as cell growth at 10^-5 M after 48 hrs by sulforhodamine B assay; settings: KM12, 48 h, read-out: Activity
[19] = Cytotoxicity against human SKBR3 cells assessed as growth inhibition at 100 uM after 2 days by MTT assay; settings: SK-BR-3, 48 h, read-out: GI
[20] = Antiproliferative activity against human RXF393 cells assessed as cell growth at 10^-5 M after 48 hrs by sulforhodamine B assay; settings: RXF 393, 48 h, read-out: Activity
MDA-MB-468 = assay: Antiproliferative activity against human MDA-MB-468 cells assessed as cell growth at 10^-5 M after 48 hrs by sulforhodamine B assay; settings: MDA-MB-468, 48 h, read-out: Activity
NCI-H23 = assay: Antiproliferative activity against human NCI-H23 cells assessed as cell growth at 10^-5 M after 48 hrs by sulforhodamine B assay; settings: NCI-H23, 48 h, read-out: Activity
A498 = assay: Antiproliferative activity against human A498 cells assessed as cell growth at 10^-5 M after 48 hrs by sulforhodamine B assay; settings: A498, 48 h, read-out: Activity
[21] = Cytotoxicity against human SKBR3 cells assessed as growth inhibition at 10 uM after 2 days by MTT assay; settings: SK-BR-3, 48 h, read-out: GI
[22] = Antiproliferative activity against human IGROV1 cells assessed as cell growth at 10^-5 M after 48 hrs by sulforhodamine B assay; settings: IGROV-1, 48 h, read-out: Activity

Row | Structure (SMILES) | inhibition of growth at 100 µM [1] | growth at 10 µM [2] | growth at 10 µM [3] | growth at 10 µM (SN12C) | growth at 10 µM [4] | growth at 10 µM [5] | growth at 10 µM [6] | growth at 10 µM [7] | growth at 10 µM [8] | growth at 10 µM [9] | growth at 10 µM (Malme-3M) | growth at 10 µM (SR) | growth at 10 µM [10] | growth at 10 µM (M14) | growth at 10 µM (786-0) | growth at 10 µM (NCI-H226) | growth at 10 µM (ACHN) | growth at 10 µM [11] | growth at 10 µM [12] | growth at 10 µM [13] | further results
1 | CNC(=O)c1cc(Oc2ccc3nc(NC(=O)c4cccc(F)n4)sc3c2)ccn1 | 55.5% | 99.2% | 128% | 84.9% | 89.1% | 96.6% | 92.2% | 89.6% | 88.6% | 80.8% | 98.2% | 55.9% | 81.4% | 91.8% | 86% | 76.3% | 94.5% | 80.3% | 74.6% | 92.7% | growth at 10 µM (MCF7): 86.3%; growth at 10 µM (SK-MEL-28): 105%; inhibition of growth at 10 µM [14]: 10.8%; growth at 10 µM (NCI-H322M): 92.8%; growth at 10 µM [15]: 105%; growth at 10 µM (SK-MEL-5): 71.8%; growth at 10 µM [16]: 105%; growth at 10 µM (EKVX): 90%; growth at 10 µM [17]: 80.5%; growth at 10 µM [18]: 83%; growth at 10 µM (KM12): 87.5%; inhibition of growth at 100 µM [19]: 89.4%; growth at 10 µM [20]: 101%; growth at 10 µM (MDA-MB-468): 71.3%; growth at 10 µM (NCI-H23): 83%; growth at 10 µM (A498): 72.6%; inhibition of growth at 10 µM [21]: 12.5%; growth at 10 µM [22]: 101%
2 | CNC(=O)c1cc(Oc2ccc3nc(NC(=O)c4ccc5ncccc5c4)sc3c2)ccn1 | 72.3% | 105% | 106% | 92.6% | 86.9% | 107% | 91.1% | 97.5% | 95.1% | 94.2% | 80.5% | 88.8% | 110% | 102% | 98.4% | 68.6% | 102% | 93.1% | 82.3% | 108% | growth at 10 µM (MCF7): 88%; growth at 10 µM (SK-MEL-28): 101%; inhibition of growth at 10 µM [14]: 22.5%; growth at 10 µM (NCI-H322M): 99%; growth at 10 µM [15]: 112%; growth at 10 µM (SK-MEL-5): 86.4%; growth at 10 µM [16]: 86.5%; growth at 10 µM (EKVX): 87.5%; growth at 10 µM [17]: 103%; growth at 10 µM [18]: 89.9%; growth at 10 µM (KM12): 101%; inhibition of growth at 100 µM [19]: 29.6%; growth at 10 µM [20]: 109%; growth at 10 µM (MDA-MB-468): 73.7%; growth at 10 µM (NCI-H23): 92.7%; growth at 10 µM (A498): 88.3%; inhibition of growth at 10 µM [21]: 17.1%; growth at 10 µM [22]: 93.3%
